According to US8097585B2, “Methods of treating inflammation by administration of heme oxygenase-1 and products of heme degradation” (priority 2002, dated 2012):
Structures can show the parent of a compound that is named as a salt.

Columns and labels:
IL-2 = IL-2 assay (ELISA of culture supernatant); assay type: cell-based, mouse; conditions: anti-CD3 mAb stimulation, biliverdin 50 or 100 μM
Experimental: IL-2 assay. B6AF1 leukocytes (2.5×10^5 cells/well) were stimulated by anti-CD3 mAb (1 μg/ml), and cultured in 96 well round bottom plates with or without biliverdin (50 or 100 μM). Forty-eight hours later, culture supernatant (100 μl) was collected and stored at −80° C. until use. All cultures were performed in triplicates. IL-2 levels in the supernatants were measured by enzyme-linked immunosorbent assays (ELISA) using an IL-2 assay kit (Quantikine® M, R&D Systems, Inc), following kit instructions. Measurements of each supernatant sample for IL-2 were performed in duplicate. The experiment was repeated 4 times.

[1] = tested on: transplanted islets in diabetic mice; experiment: Syngeneic islet transplantation, minimal mass model; assay type: in vivo, DBA/2 mouse; conditions: 50 μmol/kg twice daily day-1 until day 7; 140 islets; control hyperglycemic >52 days
Experimental: The ability of exogenously administered biliverdin to protect transplanted islet was evaluated in the minimal mass model. Syngeneic islet transplantation was carried out in the DBA/2 mouse. Islets (140) were transplanted under the kidney capsule of diabetic mice. Test animals were treated with 50 μmol/kg biliverdin twice daily from day-1 until day 7. The controls were treated with vehicle only. Biliverdin treated animals returned to normoglycemia in 7.7±5.5 days; animals in control group remain hyperglycemic (>52 days).

[2] = tested on: neointimal formation in carotid arteries; experiment: Carotid balloon injury model, neointimal formation; assay type: in vivo, Lewis Rats; conditions: 14 days
From the text: Animals. Adult male Lewis Rats (LEW/CrlBR; Charles River Laboratories, Wilmington, Mass.) weighing 350-400 g were used in the balloon injury model. Animals were housed in accordance with the guidelines from the American Association for Laboratory Animal Care and research protocols were approved by the institutional animal care and use committee of the Beth Israel Deaconess Medical Center, Boston, Mass.
Balloon Injury model. After the exposure of the left common carotid and the left external carotid arteries, a 2F Fogarty catheter (Edwards Lifesciences LLC, Irvine, Calif.) was introduced via the external carotid artery and was advanced into the left common carotid artery, inflated to 2 atmospheres of pressure and pulled back to the point of bifurcation, then deflated. This procedure was repeated three times.
Experimental reagents and design. […]
Histomorphometric analysis. […] Images were analyzed by manual segmentation, tracing intima and media in each section. Areas and diameters were calculated by digital imaging software (AxioVision™, Carl Zeiss, Jena, Germany) as number of pixels corresponding to those areas and diameters. […] 24 sections from each group were statistically analyzed with StatView® software version 5.0 using ANOVA.

HO-1 = experiment: HO activity assay on spleen and heart of treated mice; assay type: in vivo, DBA/2J mice; conditions: 5 mg/kg i.p., one day after treatment
Experimental: HO activity assay. DBA/2J mice were given either no treatment or CoPPIX or ZnPPIX at a dose of 5 mg/kg, i.p. (n=10 per group). One day after the treatment, the animals were sacrificed, the spleen and the heart were excised, and tissue samples were frozen at −80° C. Frozen tissue samples were homogenized in ice-cold sucrose and Tris-HCl buffer. The microsomal pellet was obtained after centrifugation and re-suspended in MgCl2-potassium phosphate buffer. Sample protein was then incubated with the reaction mixture containing rat liver cytosol, hemin, glucose-6-phosphate, glucose-6-phosphate dehydrogenase and NADPH (Sigma-Aldrich Corporation, St. Louis, Mo.) for 60 minutes at 37° C. The generated bilirubin was measured by reacting with diazotized surfanilic acid to yield azobilirubin using spectrophotometer.

Row | Structure (SMILES) | IL-2 production by splenocytes (IL-2) | time to return to normoglycemia [1] [days] | neointimal formation after balloon injury ([2]; local pre-treatment, instilled into common carotid artery for one hour) | neointimal formation after balloon injury ([2]; systemic treatment, 50 μmol/kg i.p. at two time points) | HO-1 enzymatic activity (HO-1)
1 | C=CC1=C(C)/C(=C/C2=NC(=C\c3[nH]c(/C=C4\NC(=O)C(C)=C4C=C)c(C)c3CCC(=O)O)/C(CCC(=O)O)=C2C)NC1=O [biliverdin, biliverdin dihydrochloride] | significantly suppressed in a dose-dependent manner | 7.7 ± 5.5 | significantly inhibits neointimal formation | significantly inhibits neointimal formation | 
2 | C=CC1=C(C)c2cc3[n-]c(cc4nc(cc5[n-]c(cc1n2)c(C)c5CCC(=O)[O-])C(CCC(=O)[O-])=C4C)c(C)c3C=C.[Co+2].[H+].[H+] [CoPP, Cobalt protoporphyrin] |  |  |  |  | significantly enhanced
